Article PMC8931250, “A SURF4-to-proteoglycan relay mechanism that mediates the sorting and secretion of a tagged variant of sonic hedgehog” (Proceedings of the National Academy of Sciences of the …, 2022)

What was measured:
[1] = target: T1, GST-SURF4^49-60 (Homo sapiens, UniProt O15260); experiment: Peptide bead pull down with purified GST-SURF4^49-60 as prey; type: binding; details: normalized to CW peptides; n = 3, mean ± SD (values only in Fig. 3O); anti-GST immunoblot; HK buffer pH 7.2, 4 °C
T1 construct: SURF4 (49-60) in the same buffer was in the calorimetric cell; made in house; host or cells: Escherichia coli
Experimental: (§1) Immunoprecipitation was performed as described ([27]). Purification of GST-tagged ShhN^25-49 and GST-tagged SURF4^49-60 was performed as described previously ([54]). GST pull down assays were performed as described previously ([54]). Peptide binding assay was performed as described previously ([27]). […]
in cold KOAc buffer (110 mM KOAc, 2 mM Mg(OAc)2, 20 mM Hepes, pH 7.2). Then cells were permeabilized by 0.03 mg/ml digitonin in KOAc buffer for 6 min at room temperature. The permeabilized cells were washed with cold KOAc buffer. […]
(§2) Binding assays between Myc- tagged SURF4 or Myc-tagged SURF4ED-AA and HA-tagged ShhN or ShhN∆33- 39 were performed by treating HEK293T cells co -transfected with plasmids encoding the indicated proteins in 1 × PBS containing 2 mM dithiobis[succinimidylpropionate] […] After incubation, the beads were washed 4 times with 1 ml of HK buffer (100 mM KCl, 20 mM Hepes, pH 7.2), and the bound material was analyzed by immunoblotting. […]
(§3) After incubation, the beads were washed three times with 500 µ l of HKT buffer and twice with 500 µ l of HK buffer, and the bound material was analyzed by immunoblotting. […]
(§4) reaction mixture for 1 h at 4 °C. The beads were washed four times with 500 µ l of HK buffer and analyzed […]
Label-free quantitative mass spectrometry […]

[2] = tested on: COPII-dependent ER export; details: cited from earlier work
Experimental: (§5) To analyze whether the CW motif is important for the packaging of ShhN into COPII vesicles, we reconstituted vesicular release of ShhN in HEK293T cells (Fig. 1T). HEK293T cells transfected with 3xHA-tagged ShhN (ShhN-HA) were permeabilized by digitonin. After permeabilization, the semi-intact cells were washed with buffer to remove endogenous cytosolic proteins. Semi-intact cells were then incubated at 30 °C with rat liver cytosol (RLC), GTP, and an ATP regeneration system (ATPrS) in the presence or absence of a GTP hydrolysis defective mutant form of Sar1A, Sar1A (H79G). The vesicles released ...

[3] = tested on: packaging of ShhN-HA into transport vesicles; experiment: In vitro vesicle formation assay, packaging of ShhN-HA; type: cell-based
Experimental: as §5, with “were then isolated by centrifugation and analyzed by immunoblotting (Fig. 1T). […] Deleting residues 33 to 49 (Fig. 1V) or deleting the CW motif (residues 33 to 39) in ShhN caused a significant reduction in the efficiency of packaging of ShhN into vesicles (Fig. 1W and quantification in Fig. 1X), while the abundance of ERGIC53 in transport vesicles was unchanged (Fig. 1Y). […]” for “...”
as §4
(§6) Label-free quantitative mass spectrometry
(§7) Mass spectrometry was performed to identify the proteins involved in Shh secretion. […] Finally, the resulted peptides were analyzed by Mass Spectrometer. The tandem mass spectra were then subject to protein identification and label-free quantification by Proteome Discoverer. […]

[4] = tested on: packaging of ERGIC53 into transport vesicles; experiment: In vitro vesicle formation assay, packaging of ERGIC53; type: cell-based; details: semi-intact HEK293T cells, rat liver cytosol, GTP, ATPrS, 0.5 µg Sar1A (H79G)
Experimental: as §5, with “were then isolated by centrifugation and analyzed by immunoblotting (Fig. 1T). […] Deleting residues 33 to 49 (Fig. 1V) or deleting the CW motif (residues 33 to 39) in ShhN caused a significant reduction in the efficiency of packaging of ShhN into vesicles (Fig. 1W and quantification in Fig. 1X), while the abundance of ERGIC53 in transport vesicles was unchanged (Fig. 1Y). […]” for “...”
as §4, §6, §7

[5] = tested on: SURF4-Myc; experiment: Crosslinking co-IP of SURF4-Myc with HA-tagged cargo; type: binding, human; details: HEK293T, 2 mM DSP
Experimental: as §1
Immunoprecipitation, protein purification, and binding assay
Immunoprecipitation of HA-tagged ShhN was performed by incubating 200 µl of 0.5 mg/ml cell lysates from HEK293T cells transfected with ShhN- HA in HKT buffer with 10 μl of compact anti-HA agarose affinity beads with mixing at 4 °C overnight. After incubation, the beads were washed 4 times with 1 ml of HK buffer (100 mM KCl, 20 mM Hepes, pH 7.2), and the bound material was analyzed by Coomassie blue staining and immunoblotting.
as §2, §3

[6] = tested on: ShhN-SURF4 interaction; experiment: Heparin competition in GST pull down of SURF4-HA by ShhN^25-49-GST; type: binding, human; details: n = 3
Experimental: as §1
Immunoprecipitation, protein purification, and binding assay […]
After incubation, the beads were washed 4 times with 1 ml of HK buffer (100 mM KCl, 20 mM Hepes, pH 7.2), and the bound material was analyzed by Coomassie blue staining and immunoblotting.
Binding assays between Myc- tagged SURF4 or Myc-tagged SURF4ED-AA and HA-tagged ShhN or ShhN∆33- 39 were performed by treating HEK293T cells co -transfected with plasmids encoding the indicated proteins in 1 × PBS containing 2 mM dithiobis[succinimidylpropionate] (DSP) and 2 mM CaCl2 at room temperature for 30 min, and then quenched with 25 mM Tris-HCl, pH 7.5. 200 µl of 0.5 mg/ml cell lysates were incubated with 10 μl of compact anti-HA agarose affinity beads with mixing at 4 °C overnight. After incubation, the beads were washed 4 times with 1 ml of HK buffer (100 mM KCl, 20 mM Hepes, pH 7.2), and the bound material was analyzed by immunoblotting. […]
as §3

[7] = target: T2, CW peptides (KRRHPKKC) ( (human or mouse cDNA cloned)); experiment: ITC; isothermal titration calorimetry of CW peptides with GST-SURF4^49-60 or GST; details: both partners purified
T2 construct: Cardin-Weintraub (CW) motif of Shh, residues 33 to 39 in ShhN; C-terminal cysteine printed after the KRRHPKK motif; In the pull-downs the peptide was covalently linked to thiopyridone Sepharose 6B; also called peptides corresponding to the CW motif; source: synthetic peptide
T2 peptide: KRRHPKKC

AAAHPAAC [CW(KR-AA), alanine substituted mutant (AAAHPAAC)]
level of GST-SURF4^49-60 bound relative to CW peptides [1]: bound more efficiently to the wild-type CW sequence than an alanine substituted mutant

Sar1A (H79G): GTP hydrolysis defective mutant form of Sar1A
COPII-dependent ER export [2]: inhibits COPII-dependent ER export | membrane association of SEC23A/B [2]: enhances membrane association of SEC23A/B | vesicular capture of SEC22B and ERGIC53 [2]: abolishes the vesicular capture | vesicular release of TGN46 [2]: does not affect the vesicular release | efficiency of packaging of ShhN-HA into transport vesicles ([3]; HEK293Trex cells, SAR1A (H79G)): reduced the efficiency of packaging | efficiency of packaging of ShhN-HA into transport vesicles ([3]; semi-intact HEK293T cells, rat liver cytosol, GTP, ATPrS, 0.5 µg Sar1A (H79G)): greatly reduced | efficiency of packaging of ERGIC53 into transport vesicles [4]: greatly reduced

ShhN-HA: 3xHA-tagged N-terminal fragment of Shh without the cholesterol modification
percentage of SURF4-Myc bound to ShhN-HA vs CW motif-depleted ShhN ([5]; n = 3): significantly higher than the percentage of SURF4-Myc that bound to ShhN^Δ33-39-HA | interaction with SURF4 vs IGF2 ([5]; SURF4-Myc, HA beads): more robustly than IGF2

VRRFRYPERPC [peptides corresponding to the first intracellular loop of Frizzled6 (…)]
level of GST-SURF4^49-60 bound relative to CW peptides [1]: significantly lower than that bound to the CW peptides

heparin
inhibition of the interaction between ShhN and SURF4 ([6]; GST pull down with ShhN^25-49-GST and SURF4-HA lysate): inhibited the interaction between ShhN and SURF4 in a concentration-dependent manner | inhibition of the ShhN-SURF4 interaction at pH 6.0 ([6]; pH 6.0): still inhibits the ShhN-SURF4 interaction

B1: GST-SURF4^49-60 (domain or fragment, human, UniProt O15260 49-60, looked up)
chain: SEQRDYIDTTWN
notes: first luminal loop of SURF4, amino acids 49 to 60; also called GST-tagged SURF4^49-60; source: E. coli, purified
Kd [7]: 2350 ± 90 nM
